Values joined by “and” are separate entries in the source; they are usually repeats but may differ in a detail not shown here. Equal values may be shown once. Toxic doses and inconclusive results are not listed.
System: CD2F1 mice, L1210 leukemia ip, survival T/C
Experiment: NCI In Vivo Anticancer Drug Screen. Data for tumor model L1210 Leukemia (intraperitoneal) in CD2F1 (CDF1) mice
Settings: higher = longer survival
Method in brief: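 Activity against a transplanted murine tumor was judged by comparing the compound group with a vehicle group. The outcome in the treated animals was divided by that in the controls.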

[1] = endpoint: mean survival time, dose: 100.0 mg/kg/injection, schedule: Q01DX009 (ip), vehicle: saline
[2] = endpoint: mean survival time, dose: 50.0 mg/kg/injection, schedule: Q01DX009 (ip), vehicle: saline with Tween-80
[3] = endpoint: mean survival time, dose: 100.0 mg/kg/injection, schedule: Q01DX009 (ip), vehicle: saline with Tween-80
[4] = endpoint: mean survival time, dose: 200.0 mg/kg/injection, schedule: Q01DX009 (ip), vehicle: saline with Tween-80
[5] = endpoint: mean survival time, dose: 100.0 mg/kg/injection, schedule: Q04DX003 (ip), vehicle: saline
[6] = endpoint: mean survival time, dose: 200.0 mg/kg/injection, schedule: Q04DX003 (ip), vehicle: saline
[7] = endpoint: mean survival time, dose: 100.0 mg/kg/injection, schedule: Q04DX003 (ip), vehicle: saline with Tween-80
[8] = endpoint: mean survival time, dose: 200.0 mg/kg/injection, schedule: Q04DX003 (ip), vehicle: saline with Tween-80
[9] = endpoint: mean survival time, dose: 100.0 mg/kg/injection, schedule: Q01DX001 (ip), vehicle: saline with Tween-80
[10] = endpoint: mean survival time, dose: 200.0 mg/kg/injection, schedule: Q01DX001 (ip), vehicle: saline with Tween-80
[11] = endpoint: mean survival time, dose: 400.0 mg/kg/injection, schedule: Q01DX001 (ip), vehicle: saline with Tween-80
[12] = endpoint: mean survival time, dose: 100.0 mg/kg/injection, schedule: Q01DX001 (ip), vehicle: saline
[13] = endpoint: mean survival time, dose: 200.0 mg/kg/injection, schedule: Q01DX001 (ip), vehicle: saline
[14] = endpoint: mean survival time, dose: 400.0 mg/kg/injection, schedule: Q01DX001 (ip), vehicle: saline
[15] = endpoint: mean survival time, dose: 400.0 mg/kg/injection, schedule: Q04DX003 (ip), vehicle: saline with Tween-80
[16] = endpoint: mean survival time, dose: 12.5 mg/kg/injection, schedule: Q01DX009 (ip), vehicle: saline with Tween-80
[17] = endpoint: mean survival time, dose: 25.0 mg/kg/injection, schedule: Q01DX009 (ip), vehicle: saline with Tween-80
[18] = endpoint: mean survival time, dose: 400.0 mg/kg/injection, schedule: Q01DX009 (ip), vehicle: saline with Tween-80

`COC1OC(CO)C(O)C(NC(=O)N(C)N=O)C1O` (configuration not stated) was tested, and the T/C (endpoint: mean survival time, dose: 12.5 mg/kg/injection, schedule: Q01DX009 (ip), vehicle: saline) was 111 % of control, the T/C (endpoint: mean survival time, dose: 25.0 mg/kg/injection, schedule: Q01DX009 (ip), vehicle: saline) was 114 % of control and the T/C [1] was 151 % of control. For the same compound, the T/C (endpoint: mean survival time, dose: 200.0 mg/kg/injection, schedule: Q01DX009 (ip), vehicle: saline) was 157 % of control and 197 % of control, the T/C (endpoint: mean survival time, dose: 400.0 mg/kg/injection, schedule: Q01DX009 (ip), vehicle: saline) was 95 % of control and the T/C (endpoint: median survival time, dose: 25.0 mg/kg/injection, schedule: Q01DX009 (ip), vehicle: saline) was 121 % of control. For the same compound, the T/C (endpoint: median survival time, dose: 100.0 mg/kg/injection, schedule: Q01DX009 (ip), vehicle: saline) was 159 % of control and 160 % of control, the T/C (endpoint: median survival time, dose: 144.0 mg/kg/injection, schedule: Q01DX005 (ip), vehicle: saline) was 158 % of control and the T/C (endpoint: median survival time, dose: 200.0 mg/kg/injection, schedule: Q01DX009 (ip), vehicle: saline) was 172 % of control and 209 % of control. For the same compound, the T/C (endpoint: median survival time, dose: 240.0 mg/kg/injection, schedule: Q01DX005 (ip), vehicle: saline) was 170 % of control and 172 % of control, the T/C (endpoint: median survival time, dose: 400.0 mg/kg/injection, schedule: Q01DX005 (ip), vehicle: saline) was 175 % of control and 225 % of control and the T/C (endpoint: median survival time, dose: 400.0 mg/kg/injection, schedule: Q01DX009 (ip), vehicle: saline) was 222 % of control and 236 % of control. For the same compound, the T/C (endpoint: median survival time, dose: 666.66 mg/kg/injection, schedule: Q01DX005 (ip), vehicle: saline) was 233 % of control and the T/C (endpoint: median survival time, dose: 1111.11 mg/kg/injection, schedule: Q01DX005 (ip), vehicle: saline) was 92 % of control.

In the case of `CC/C=C(\CC)C(=O)O`, the T/C [2] was 109 % of control, the T/C [3] was 105 % of control and the T/C [4] was 105 % of control.

In the case of `COCCCN1CCN(c2ccccc2OC)CC1`, the T/C (endpoint: mean survival time, dose: 50.0 mg/kg/injection, schedule: Q01DX009 (ip), vehicle: saline) was 93 % of control, the T/C [1] was 88 % of control and the T/C [5] was 98 % of control. For the same compound, the T/C [6] was 104 % of control.

For `Cc1ccccc1S(=O)(=O)F`, the T/C [2] was 103 % of control, the T/C [3] was 107 % of control and the T/C [7] was 92 % of control. For the same compound, the T/C [8] was 89 % of control.

In the case of `NC1=CC(=O)C(c2ccccc2)C1=O` (configuration not stated), the T/C [9] was 100 % of control, the T/C [10] was 92 % of control and the T/C [11] was 92 % of control.

In the case of `O=C1c2ccccc2C(=O)N1OCCCN1C(=O)c2ccccc2S1(=O)=O`, the T/C [12] was 96 % of control, the T/C [13] was 100 % of control and the T/C [14] was 100 % of control.

In the case of `O=C(O)c1cc([N+](=O)[O-])cc([N+](=O)[O-])c1`, the T/C [7] was 97 % of control, the T/C [8] was 97 % of control and the T/C [15] was 101 % of control.

`O=C(O)c1ccccc1C(=O)c1ccc(CBr)cc1` was tested, and the T/C (endpoint: mean survival time, dose: 6.25 mg/kg/injection, schedule: Q04DX003 (ip), vehicle: saline with Tween-80) was 93 % of control, the T/C (endpoint: mean survival time, dose: 12.5 mg/kg/injection, schedule: Q04DX003 (ip), vehicle: saline with Tween-80) was 101 % of control and the T/C (endpoint: mean survival time, dose: 25.0 mg/kg/injection, schedule: Q04DX003 (ip), vehicle: saline with Tween-80) was 101 % of control.

With `O=C(O)C(=O)O.[La]` the T/C (endpoint: mean survival time, dose: 200.0 mg/kg/injection, schedule: Q01DX009 (ip), vehicle: other) was 98 % of control and the T/C (endpoint: mean survival time, dose: 400.0 mg/kg/injection, schedule: Q01DX009 (ip), vehicle: other) was 96 % of control.

In the case of `NC(=O)N/N=C/c1ccc([N+](=O)[O-])s1`, the T/C [7] was 97 % of control, the T/C [8] was 99 % of control and the T/C [15] was 106 % of control.

In the case of `CCOC(=O)C(=O)C[n+]1cc2ccccc2cc1/C=N/O`, the T/C [5] was 105 % of control, the T/C [6] was 105 % of control and the T/C (endpoint: mean survival time, dose: 400.0 mg/kg/injection, schedule: Q04DX003 (ip), vehicle: saline) was 94 % of control.

With `Cc1nc2cc(Cl)cc([N+](=O)[O-])c2nc1C` the T/C (endpoint: mean survival time, dose: 100.0 mg/kg/injection, schedule: Q01DX001 (ip), vehicle: other) was 103 % of control, the T/C (endpoint: mean survival time, dose: 200.0 mg/kg/injection, schedule: Q01DX001 (ip), vehicle: other) was 97 % of control and the T/C (endpoint: mean survival time, dose: 400.0 mg/kg/injection, schedule: Q01DX001 (ip), vehicle: other) was 97 % of control.

`CC(C)(C)OC1C2C=CC1C=C2` (configuration not stated) was tested, and the T/C [9] was 100 % of control, the T/C [10] was 91 % of control and the T/C [11] was 88 % of control.

With `CCCCCCC/C=N/NC(=O)c1ccc[n+](C)c1` the T/C [9] was 97 % of control and the T/C [10] was 97 % of control.

`COc1cc(N2C(N)=NC(N)=NC2(C)C)cc(OC)c1OC` was tested, and the T/C (endpoint: mean survival time, dose: 6.25 mg/kg/injection, schedule: Q04DX003 (ip), vehicle: saline) was 97 % of control, the T/C (endpoint: mean survival time, dose: 12.5 mg/kg/injection, schedule: Q04DX003 (ip), vehicle: saline) was 102 % of control and the T/C (endpoint: mean survival time, dose: 25.0 mg/kg/injection, schedule: Q04DX003 (ip), vehicle: saline) was 102 % of control.

With `N#CCS(=O)(=O)c1cccc[n+]1[O-]` the T/C (endpoint: median survival time, dose: 25.0 mg/kg/injection, schedule: Q01DX009 (ip), vehicle: saline with Tween-80) was 97 % of control, the T/C (endpoint: median survival time, dose: 50.0 mg/kg/injection, schedule: Q01DX009 (ip), vehicle: saline with Tween-80) was 98 % of control and the T/C (endpoint: median survival time, dose: 100.0 mg/kg/injection, schedule: Q01DX009 (ip), vehicle: saline with Tween-80) was 98 % of control. For the same compound, the T/C (endpoint: median survival time, dose: 200.0 mg/kg/injection, schedule: Q01DX009 (ip), vehicle: saline with Tween-80) was 107 % of control and the T/C (endpoint: median survival time, dose: 400.0 mg/kg/injection, schedule: Q01DX009 (ip), vehicle: saline with Tween-80) was 116 % of control.

For `N#CSCc1cc(Cl)c(CSC#N)cc1Cl`, the T/C (endpoint: mean survival time, dose: 75.0 mg/kg/injection, schedule: Q04DX003 (ip), vehicle: saline) was 102 % of control, the T/C (endpoint: mean survival time, dose: 150.0 mg/kg/injection, schedule: Q04DX003 (ip), vehicle: saline) was 98 % of control and the T/C (endpoint: mean survival time, dose: 300.0 mg/kg/injection, schedule: Q04DX003 (ip), vehicle: saline) was 102 % of control.

With `C/C=C/c1cc2c(c(=O)o1)C(=O)[C@@H](O)[C@H](C)O2` the T/C (endpoint: mean survival time, dose: 6.25 mg/kg/injection, schedule: Q01DX009 (ip), vehicle: saline with Tween-80) was 101 % of control, the T/C [16] was 105 % of control and the T/C [17] was 97 % of control. For the same compound, the T/C [2] was 101 % of control and the T/C [3] was 113 % of control.

`O=C1C2C3C=CC(C2C(=O)N1CO)C1C2C(=O)N(CO)C(=O)C2C31` (configuration not stated) was tested, and the T/C (endpoint: median survival time, dose: 6.25 mg/kg/injection, schedule: Q01DX009 (ip), vehicle: water) was 104 % of control, the T/C (endpoint: median survival time, dose: 12.5 mg/kg/injection, schedule: Q01DX009 (ip), vehicle: water) was 107 % of control and the T/C (endpoint: median survival time, dose: 25.0 mg/kg/injection, schedule: Q01DX009 (ip), vehicle: water) was 124 % of control. For the same compound, the T/C (endpoint: median survival time, dose: 50.0 mg/kg/injection, schedule: Q01DX009 (ip), vehicle: water) was 190 % of control and 214 % of control and the T/C (endpoint: median survival time, dose: 83.3 mg/kg/injection, schedule: Q01DX009 (ip), vehicle: water) was 100 % of control.

With `N=c1nc(N)nc(N)n1-c1ccccc1` the T/C [2] was 98 % of control, the T/C [3] was 102 % of control and the T/C [4] was 102 % of control.

In the case of `CC(=O)c1ccccc1OC(=O)c1ccccc1`, the T/C [3] was 100 % of control, the T/C [7] was 107 % of control and the T/C [4] was 91 % of control. The T/C [8] was 101 % of control, the T/C [18] was 93 % of control and the T/C [15] was 104 % of control.

In the case of `CCOC(=O)c1c[nH]c2cc(OC)ccc2c1=O`, the T/C [7] was 91 % of control, the T/C [8] was 102 % of control and the T/C [15] was 100 % of control.

For `O=C1C(NCCO)=C(N2CC2)C(=O)C(NCCO)=C1N1CC1`, the T/C (endpoint: median survival time, dose: 0.06 mg/kg/injection, schedule: Q01DX009 (ip), vehicle: saline) was 122 % of control, the T/C (endpoint: median survival time, dose: 0.25 mg/kg/injection, schedule: Q01DX009 (ip), vehicle: saline) was 153 % of control and the T/C (endpoint: median survival time, dose: 0.5 mg/kg/injection, schedule: Q01DX009 (ip), vehicle: saline) was 171 % of control. The T/C (endpoint: median survival time, dose: 1.0 mg/kg/injection, schedule: Q01DX009 (ip), vehicle: saline) was 220 % of control and the T/C (endpoint: median survival time, dose: 2.0 mg/kg/injection, schedule: Q01DX009 (ip), vehicle: saline) was 86 % of control.

In the case of `O=C(O)c1ccc(C(=O)O)nc1`, the T/C [12] was 87 % of control, the T/C [13] was 95 % of control and the T/C [14] was 97 % of control.

With `Cc1csc2nc(-c3ccccc3)[nH]c(=S)c12` the T/C [7] was 90 % of control and the T/C [15] was 87 % of control.

In the case of `O=C(O)CNCC(=O)O`, the T/C [3] was 93 % of control, the T/C [4] was 97 % of control and the T/C [18] was 98 % of control.

`CN1CCC(CN2c3ccccc3Sc3ccccc32)C1` (configuration not stated) was tested, and the T/C [16] was 107 % of control, the T/C [17] was 102 % of control and the T/C [2] was 123 % of control.

From PubChem BioAssay AID256 (DTP/NCI, 2004)
